Source: BindingDB's records for PubMed 21481795 (Tufts Medical Center)

Assays:
[1] = biological target: Serine/threonine-protein kinase OSR1 (OXSR1) (Homo sapiens) (UniProt O95747); experiment: Inhibition of human OSR1 preincubated for 2 hrs followed by ATP addition and measured every 2 mins for […] by spectrophotometric analysis
[2] = biological target: Tyrosine-protein kinase Tec (Homo sapiens) (UniProt P42680); experiment: Inhibition of human wild type TEC using PolyEY as substrate preincubated for 2 hrs followed by ATP addition and measured every 2 mins for […] by spectrophotometric analysis
[3] = biological target: 3-phosphoinositide-dependent protein kinase 1 (PDPK1) (Homo sapiens) (UniProt O15530); experiment: Inhibition of human wild type PDK1 using bio-4xCHKT as substrate preincubated for 2 hrs followed by ATP addition and measured every 2 mins for […] by spectrophotometric analysis

Chain of Tyrosine-protein kinase Tec (Homo sapiens) (P42680 whole entry, looked up): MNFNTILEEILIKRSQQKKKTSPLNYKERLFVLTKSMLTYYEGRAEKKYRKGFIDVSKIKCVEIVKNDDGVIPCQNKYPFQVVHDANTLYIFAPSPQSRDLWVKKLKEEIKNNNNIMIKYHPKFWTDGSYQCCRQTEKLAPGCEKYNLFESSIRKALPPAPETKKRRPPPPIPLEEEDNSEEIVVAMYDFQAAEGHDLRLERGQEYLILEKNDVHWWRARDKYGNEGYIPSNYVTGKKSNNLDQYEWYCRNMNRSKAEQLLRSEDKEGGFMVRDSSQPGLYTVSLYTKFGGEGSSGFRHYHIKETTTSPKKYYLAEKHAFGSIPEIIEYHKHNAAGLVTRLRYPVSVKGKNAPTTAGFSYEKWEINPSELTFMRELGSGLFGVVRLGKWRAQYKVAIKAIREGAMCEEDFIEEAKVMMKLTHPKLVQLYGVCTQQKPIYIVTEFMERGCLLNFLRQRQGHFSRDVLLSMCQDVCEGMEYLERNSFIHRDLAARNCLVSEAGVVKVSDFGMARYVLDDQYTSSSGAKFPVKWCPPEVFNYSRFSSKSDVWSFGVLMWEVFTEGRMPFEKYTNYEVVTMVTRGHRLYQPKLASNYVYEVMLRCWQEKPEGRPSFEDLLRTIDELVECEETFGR
Chain of Serine/threonine-protein kinase OSR1 (OXSR1) (Homo sapiens) (O95747 whole entry, looked up): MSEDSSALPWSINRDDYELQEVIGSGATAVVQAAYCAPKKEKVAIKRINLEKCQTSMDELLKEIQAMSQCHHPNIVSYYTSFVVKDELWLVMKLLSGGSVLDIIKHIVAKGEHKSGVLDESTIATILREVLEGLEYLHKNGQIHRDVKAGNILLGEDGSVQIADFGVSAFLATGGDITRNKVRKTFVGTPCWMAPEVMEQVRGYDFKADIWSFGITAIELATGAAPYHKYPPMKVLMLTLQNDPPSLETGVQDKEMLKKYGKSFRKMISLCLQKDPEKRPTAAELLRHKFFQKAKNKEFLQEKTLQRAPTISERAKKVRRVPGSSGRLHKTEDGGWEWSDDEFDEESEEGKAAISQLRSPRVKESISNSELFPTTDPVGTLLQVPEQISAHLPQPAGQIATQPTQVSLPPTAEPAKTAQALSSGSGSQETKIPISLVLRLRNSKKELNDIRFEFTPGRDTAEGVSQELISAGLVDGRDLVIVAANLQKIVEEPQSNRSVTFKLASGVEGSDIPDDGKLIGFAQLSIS

- IC50 [1]: > 1000 nM
- IC50 [2]: > 1000 nM
- IC50 [3]: > 1000 nM
Compound: CNC(=O)c1cc(Oc2ccc(NC(=O)Nc3cc(C(C)(C)C)nn3-c3ccc4ncccc4c3)c(F)c2)ccn1 [Rebastinib]
